# Assay results published in patent US11053204B2, “Pyrimidinyloxy benzene derivatives as herbicides” (FMC Corporation, priority 2015, dated 2021).
# Key:
# Type in all cases: in vivo
# [1] = test system: nutsedge, yellow (yellow nutsedge, Cyperus esculentus); assay: Test C preemergence, plant response rating; conditions: Cyperus, pre-emergence, Preemergence
# Procedure, shortened: (§1)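 Preemergence: seeds sown in loam–sand blend or silt loam and sprayed with test chemicals in a non-phytotoxic surfactant-containing solvent. Postemergence: potted plants at 2–18 cm (1–4-leaf stage) sprayed with the same formulation. After 13–15 d in greenhouse, visual rating versus controls on 0 (no effect) to 100 (complete control) scale.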
# [2] = test system: ryegrass, Italian (Italian ryegrass, Lolium multiflorum); assay: Test C preemergence, plant response rating; conditions: Lolium multiflorum, pre-emergence, Preemergence
# Procedure, shortened: as §1
# [3] = test system: lambsquarters (Chenopodium album); assay: Test C preemergence, plant response rating; conditions: Chenopodium album, pre-emergence, Preemergence
# Procedure, shortened: as §1
# [4] = test system: blackgrass (Alopecurus myosuroides); assay: Test C preemergence, plant response rating; conditions: Alopecurus myosuroides, pre-emergence, Preemergence
# Procedure, shortened: as §1
# [5] = test system: crabgrass, large (large crabgrass, Digitaria sanguinalis); assay: Test C preemergence, plant response rating; conditions: Digitaria sanguinalis, pre-emergence, Preemergence
# Procedure, shortened: as §1
# [6] = test system: waterhemp (common waterhemp, Amaranthus rudis); assay: Test C preemergence, plant response rating; conditions: Amaranthus tuberculatus, pre-emergence, Preemergence
# Procedure, shortened: as §1
# [7] = test system: velvetleaf (Abutilon theophrasti); assay: Test C preemergence, plant response rating; conditions: Abutilon theophrasti, pre-emergence, Preemergence
# Procedure, shortened: as §1
# [8] = test system: morningglory (Ipomoea coccinea); assay: Test C preemergence, plant response rating; conditions: Ipomoea, pre-emergence, Preemergence
# Procedure, shortened: as §1
# [9] = test system: wheat (winter wheat, Triticum aestivum); assay: Test C preemergence, plant response rating; conditions: Triticum aestivum, pre-emergence, Preemergence
# Procedure, shortened: as §1
# [10] = test system: foxtail, giant (giant foxtail, Setaria faberii); assay: Test C preemergence, plant response rating; conditions: Setaria faberi, pre-emergence, Preemergence
# Procedure, shortened: as §1
# [11] = test system: oilseed rape (Brassica napus); assay: Test C preemergence, plant response rating; conditions: Brassica napus, pre-emergence, Preemergence
# Procedure, shortened: as §1
# [12] = test system: soybean (Glycine max); assay: Test C preemergence, plant response rating; conditions: Glycine max, pre-emergence, Preemergence, scale 0 to 100
# Procedure, shortened: as §1
# [13] = test system: corn (Zea mays); assay: Test C preemergence, plant response rating; conditions: Zea mays, pre-emergence, Preemergence
# Procedure, shortened: as §1
# [14] = test system: galium (catchweed bedstraw, Galium aparine); assay: Test C postemergence, plant response rating; conditions: Galium, post-emergence
# Procedure, shortened: as §1
# [15] = test system: crabgrass, large (large crabgrass, Digitaria sanguinalis); assay: Test C postemergence, plant response rating; conditions: Digitaria sanguinalis, post-emergence
# Procedure, shortened: as §1
# [16] = test system: waterhemp (common waterhemp, Amaranthus rudis); assay: Test C postemergence, plant response rating; conditions: for Plant response rating, Waterhemp: scale 0 to 100; for Waterhemp plant response rating: scale 0 to 100 (0 no effect, 100 complete control)
# Procedure, shortened: as §1
# [17] = test system: foxtail, giant (giant foxtail, Setaria faberii); assay: Test C postemergence, plant response rating; conditions: Setaria faberi, post-emergence
# Procedure, shortened: as §1
# [18] = test system: kochia (Kochia scoparia); assay: Test C postemergence, plant response rating; conditions: Bassia scoparia, post-emergence
# Procedure, shortened: as §1
# [19] = test system: oilseed rape (Brassica napus); assay: Test C postemergence, plant response rating; conditions: Brassica napus, post-emergence
# Procedure, shortened: as §1
# [20] = test system: soybean (Glycine max); assay: Test C postemergence, plant response rating; conditions: Glycine max, post-emergence
# Procedure, shortened: as §1
# [21] = test system: corn (Zea mays); assay: Test C postemergence, plant response rating; conditions: Zea mays, post-emergence
# Procedure, shortened: as §1
# [22] = 62 g ai/ha, scale 0 to 100 (0 no effect, 100 complete control)
# [23] = 125 g ai/ha, scale 0 to 100 (0 no effect, 100 complete control)
smiles,measurement,setting,value
"O=C(OCCC(F)(F)F)c1c(Br)cccc1Oc1ncc(Cl)cn1 [Compound 26, 3,3,3-trifluoropropyl 2-bromo-6-[(5-chloro-2-pyrimidinyl)oxy]benzoate]",pest or weed control at 125 g/ha,"[1]; 125 g ai/ha, scale of 0 to 100",45%
same,pest or weed control at 16 g/ha,"[1]; 16 g ai/ha, scale 0 to 100",0%
same,pest or weed control at 31 g/ha,"[1]; 31 g ai/ha, scale 0 to 100",0%
same,pest or weed control at 62 g/ha,"[1]; 62 g ai/ha, scale 0 to 100",15%
same,pest or weed control at 125 g/ha,"[2]; 125 g ai/ha, scale of 0 to 100",95%
same,pest or weed control at 16 g/ha,"[2]; 16 g ai/ha, scale 0 to 100",35%
same,pest or weed control at 31 g/ha,"[2]; 31 g ai/ha, scale 0 to 100",75%
same,pest or weed control at 62 g/ha,"[2]; 62 g ai/ha, scale 0 to 100",85%
same,pest or weed control at 125 g/ha,"[3]; 125 g ai/ha, scale of 0 to 100",95%
same,pest or weed control at 16 g/ha,"[3]; 16 g ai/ha, scale 0 to 100",70%
same,pest or weed control at 31 g/ha,"[3]; 31 g ai/ha, scale 0 to 100",85%
same,pest or weed control at 62 g/ha,"[3]; 62 g ai/ha, scale 0 to 100",95%
same,pest or weed control at 62 g/ha,"[4]; 62 g ai/ha, scale of 0 to 100",90%
same,pest or weed control at 125 g/ha,"[4]; 125 g ai/ha, scale of 0 to 100",90%
same,pest or weed control at 16 g/ha,"[4]; 16 g ai/ha, scale 0 to 100",45%
same,pest or weed control at 31 g/ha,"[4]; 31 g ai/ha, scale 0 to 100",90%
same,pest or weed control at 62 g/ha,"[5]; 62 g ai/ha, scale of 0 to 100",100%
same,pest or weed control at 125 g/ha,"[5]; 125 g ai/ha, scale of 0 to 100",100%
same,pest or weed control at 16 g/ha,"[5]; 16 g ai/ha, scale 0 to 100",98%
same,pest or weed control at 31 g/ha,"[5]; 31 g ai/ha, scale 0 to 100",100%
same,pest or weed control at 125 g/ha,"[6]; 125 g ai/ha, scale of 0 to 100",100%
same,pest or weed control at 16 g/ha,"[6]; 16 g ai/ha, scale 0 to 100",100%
same,pest or weed control at 31 g/ha,"[6]; 31 g ai/ha, scale 0 to 100",100%
same,pest or weed control at 62 g/ha,"[6]; 62 g ai/ha, scale 0 to 100",100%
same,pest or weed control at 125 g/ha,"[7]; 125 g ai/ha, scale of 0 to 100",100%
same,pest or weed control at 16 g/ha,"[7]; 16 g ai/ha, scale 0 to 100",0%
same,pest or weed control at 31 g/ha,"[7]; 31 g ai/ha, scale 0 to 100",30%
same,pest or weed control at 62 g/ha,"[7]; 62 g ai/ha, scale 0 to 100",85%
same,pest or weed control at 125 g/ha,"[8]; 125 g ai/ha, scale of 0 to 100",95%
same,pest or weed control at 16 g/ha,"[8]; 16 g ai/ha, scale 0 to 100",20%
same,pest or weed control at 31 g/ha,"[8]; 31 g ai/ha, scale 0 to 100",10%
same,pest or weed control at 62 g/ha,"[8]; 62 g ai/ha, scale 0 to 100",85%
same,plant injury at 125 g/ha,"[9]; 125 g ai/ha, scale of 0 to 100",15%
same,plant injury at 16 g/ha,"[9]; 16 g ai/ha, scale 0 to 100",0%
same,plant injury at 31 g/ha,"[9]; 31 g ai/ha, scale 0 to 100",20%
same,plant injury at 62 g/ha,"[9]; 62 g ai/ha, scale 0 to 100",5%
same,pest or weed control at 62 g/ha,"[10]; 62 g ai/ha, scale of 0 to 100",98%
same,pest or weed control at 125 g/ha,"[10]; 125 g ai/ha, scale of 0 to 100",98%
same,pest or weed control at 16 g/ha,"[10]; 16 g ai/ha, scale 0 to 100",95%
same,pest or weed control at 31 g/ha,"[10]; 31 g ai/ha, scale 0 to 100",98%
same,plant injury at 125 g/ha,"[11]; 125 g ai/ha, scale of 0 to 100",100%
same,plant injury at 16 g/ha,"[11]; 16 g ai/ha, scale 0 to 100",80%
same,plant injury at 31 g/ha,"[11]; 31 g ai/ha, scale 0 to 100",85%
same,plant injury at 62 g/ha,"[11]; 62 g ai/ha, scale 0 to 100",100%
same,plant injury at 31 g/ha,[12]; 31 g ai/ha,10%
same,plant injury at 62 g/ha,[12]; 62 g ai/ha,35%
same,"Corn plant response rating (crop injury, 0 = no effect, 100 = complete kill) at 62 g/ha","[13]; 62 g ai/ha, scale of 0 to 100",25%
same,"Corn plant response rating (crop injury, 0 = no effect, 100 = complete kill) at 125 g/ha","[13]; 125 g ai/ha, scale of 0 to 100",40%
same,"Corn plant response rating (crop injury, 0 = no effect, 100 = complete kill) at 16 g/ha","[13]; 16 g ai/ha, scale 0 to 100",0%
same,"Corn plant response rating (crop injury, 0 = no effect, 100 = complete kill) at 31 g/ha","[13]; 31 g ai/ha, scale 0 to 100",0%
same,pest or weed control at 16 g/ha,"[14]; 16 g ai/ha, scale 0 to 100",55%
same,pest or weed control at 31 g/ha,"[14]; 31 g ai/ha, scale 0 to 100",80%
same,pest or weed control at 62 g/ha,[14]; [22],95%
same,pest or weed control at 125 g/ha,[14]; [23],95%
same,pest or weed control at 16 g/ha,"[15]; 16 g ai/ha, scale 0 to 100",10%
same,pest or weed control at 31 g/ha,"[15]; 31 g ai/ha, scale 0 to 100",20%
same,pest or weed control at 62 g/ha,[15]; [22],25%
same,pest or weed control at 125 g/ha,[15]; [23],65%
same,"Plant response rating, Waterhemp",[16]; 16 g ai/ha,95
same,"Plant response rating, Waterhemp",[16]; 31 g ai/ha,98
same,Waterhemp plant response rating,[16]; 62 g ai/ha,98
same,Waterhemp plant response rating,[16]; 125 g ai/ha,100
same,pest or weed control at 16 g/ha,"[17]; 16 g ai/ha, scale 0 to 100",10%
same,pest or weed control at 31 g/ha,"[17]; 31 g ai/ha, scale 0 to 100",10%
same,pest or weed control at 62 g/ha,[17]; [22],10%
same,pest or weed control at 125 g/ha,[17]; [23],25%
same,pest or weed control at 16 g/ha,"[18]; 16 g ai/ha, scale 0 to 100",90%
same,pest or weed control at 31 g/ha,"[18]; 31 g ai/ha, scale 0 to 100",90%
same,pest or weed control at 62 g/ha,[18]; [22],90%
same,pest or weed control at 125 g/ha,[18]; [23],95%
same,plant injury at 16 g/ha,"[19]; 16 g ai/ha, scale 0 to 100",40%
same,plant injury at 31 g/ha,"[19]; 31 g ai/ha, scale 0 to 100",75%
same,plant injury at 62 g/ha,[19]; [22],75%
same,plant injury at 125 g/ha,[19]; [23],80%
same,plant injury at 16 g/ha,"[20]; 16 g ai/ha, scale 0 to 100",65%
same,plant injury at 31 g/ha,"[20]; 31 g ai/ha, scale 0 to 100",55%
same,plant injury at 62 g/ha,[20]; [22],65%
same,plant injury at 125 g/ha,[20]; [23],75%
same,"Corn plant response rating (crop injury, 0 = no effect, 100 = complete kill) at 16 g/ha","[21]; 16 g ai/ha, scale 0 to 100",20%
same,"Corn plant response rating (crop injury, 0 = no effect, 100 = complete kill) at 31 g/ha","[21]; 31 g ai/ha, scale 0 to 100",25%
same,plant injury at 62 g/ha,[21]; [22],20%
same,plant injury at 125 g/ha,[21]; [23],25%
